The record followed here is patent US20060084697A1, “Pi3k antagonists as radiosensitizers” (priority 2002, published 2006).

Assay [1] relates to tumor vasculature. The assay is described as follows: Intravital tumor vascular window, vascular length density, SU11248. It is filed as in vivo, mice. Here is the method:
Growth factors produced by tumors could enhance the viability of tumor vascular endothelium. To determine whether SU11248 enhances radiation-induced destruction of tumor vasculature, SU11248 was administered to mice prior to irradiation with 3 Gy. Tumor vascular linear density was measured by use of intravital tumor vascular window. […] Five mice were treated in each of the treatment groups, and the vascular length density after treatment was quantified. Mean vascular length densities over four days are shown as a bar graph.

In assay [2] the test system is GL261 hind limb tumors. The assay is described as follows: Tumor growth delay, GL261 hind limb tumors, SU11248. The assay is classed as in vivo, mice. To be noted: SU11248 prior to daily 3 Gy fractions, p<0.05. The method, then: (§1) Destruction of tumor vasculature results in ischemia, which could reduce radiosensitivity of tumors. To determine whether SU11248 enhances tumor growth delay in irradiated tumors, mice bearing LLC and GL261 hind limb tumors were treated with intraperitoneal injection of 40 mg/kg SU11248 or control vehicle 30 minutes prior to each 3 Gy dose of radiation for a total of seven administrations. Both the inhibitor and radiation were discontinued after day 8. Time to doubling of LLC tumor size was 5, 6, 8 and 16 days for vehicle, SU11248, vehicle+21 Gy, and SU11248+21 Gy, respectively.

The subject of assay [3] is HUVEC cells. The assay is described as follows: Clonogenic survival analysis of HUVEC. The assay is classed as cell-based, human. To be noted: HUVEC treated with SU11248 prior to irradiation; p<0.05.
Description: The ability of PI3K antagonist to suppress the clonogenic potential of HUVEC cells treated with radiation was assayed by clonogenic survival analysis. The ability of HUVEC cells treated with LY294002 30 minutes prior to irradiation to form colonies was compared to that of HUVEC cells treated with either radiation or LY294002 alone, and also to that of untreated HUVEC cells. […] Briefly, groups of three HUVEC culture plates were treated at each of four radiation dose levels: 2, 4, 6, and 8 Gy, either with or without prior treatment with PI3K antagonists as described in Example 2. After treatment with radiation and/or antagonists, cells were trypsinized, counted by hemocytometer, and subcultured into fresh medium. After 14 days, the cells were fixed with cold methanol and stained with 1% methylene blue. Colonies with greater than 50 cells were counted and the surviving fraction was determined.
Assay [4] concerns Erk1/2. The assay is described as follows: Radiation-induced Erk phosphorylation in endothelial cells. The assay is classed as cell-based. To be noted: primary culture endothelial cells (Example 16). The method, then:
Phosphorylation of MEK and Erk proteins was also investigated. Erk1/2 was activated following a single 3 Gy dose of irradiation. Erk was phosphorylated within 15 minutes, which resolved within 60 minutes. SU6668 is a broad spectrum inhibitor of split kinase domain RTKs, including Flk-1, Flt-1, PDGFR, fibroblast growth factor receptor (FGFR), and c-Kit (Mendel et al, 2003).
(§2) The role of RTKs in radiation-induced activation of the Akt signaling pathway was examined by studying a panel of tyrosine kinase inhibitors including PDGF receptor antagonists in primary culture endothelial cells. PDGF receptor antagonists including SU6668, SU11248, and STI571, attenuated radiation-induced phosphorylation of both Akt and Erk. […] Similar efficacy in blocking Erk1/2 phosphorylation in irradiated endothelial cells was found.

Assay [5] relates to LLC hind limb tumors. Description: Tumor growth delay, LLC hind limb tumors. It is filed as in vivo, mice. Here is the method:
as §1

For assay [6], the system named is Akt. Description: Western immunoblot of radiation-induced Akt phosphorylation in endothelial cells. The assay is classed as cell-based. Here is the method:
Broad spectrum RTK inhibitors were tested for their abilities to attenuate radiation-induced phosphorylation of Akt. SU6668, a tyrosine kinase inhibitor of VEGFR, PDGFR, FGFR, and c-Kit, was added to endothelial cells prior to irradiation. Western immunoblots using phospho-specific antibodies to phosphorylated Akt (P-Akt) were prepared.
as §2

In assay [7] the test system is PDGFRβ. The assay is described as follows: Phospho-PDGFRβ immunohistochemistry of GL261 tumors. It is filed as in vivo, C57BL6 mice. To be noted: administered one hour prior to 3 Gy. The text has this: To determine to the level of phosphorylation of PDGF receptor, GL261 mouse tumor models were sectioned and stained. A phospho-specific antibody to PDGFRβ Tyr751 (Cell Signaling Technology, Beverly, Mass., United States of America) was used. Tumors produced by injecting GL261 murine glioma cells into the hind limb of C57BL6 mice were stained for phospho-PDGFRβ and visualized using immunohistochemistry. Phospho-PDGFRβ staining was graded as 2+ relative to staining in negative controls.
To determine whether cytotoxic therapy alters PDGFRβ phosphorylation, the tumor was irradiated (3 Gy) and snap frozen following irradiation. […] Positive staining for phosphorylated PDGFR was found in endothelium and tumor stroma.
Western immunoblots were performed to verify radiation induced an increase in phosphorylation of PDGFRβ. Protein extracted from irradiated HUVEC had increased phosphorylation of PDGFRβ.

The subject of assay [8] is HUVECs. Description: Apoptotic nuclei in HUVEC, SU11248 and 6 Gy. The assay is classed as cell-based, human. To be noted: 24 hours. Here is the method:
To determine whether broad spectrum RTK inhibition enhances the cytotoxic effects of radiation on vascular endothelium, SU11248 was added 30 minutes prior to irradiation. HUVECs were treated with vehicle control, and either 100 nM SU11248 orvehicle combined with 6 Gy. […] Untreated control cells show 2% apoptotic nuclei as compared to 7 and 8% after treatment with SU11248 or radiation, respectively (p>0.1). […] To determine whether enhanced apoptotic response in endothelial cells treated with SU11248 results in reduced clonogenic cell survival, HUVEC were subcultured and colony formation was quantified.

Assay [9] deals with tumor endothelium. Description: TUNEL and vWF co-staining of tumor sections. It is filed as in vivo. The text has this:
To determine whether SU11248 interacts with radiation through the induction of apoptosis in tumor endothelium, TUNEL staining of tumor sections was utilized. Tumor sections were co-stained for the endothelial marker von Willebrand factor (vWF) and TUNEL.

In assay [10] the test system is tumors. The assay is described as follows: Maintenance SU11248 after radiation, tumor growth delay. The assay is classed as in vivo. Here is the method: Upon the discontinuation of therapy, tumors rapidly regrow. To determine whether maintenance of SU11248 beyond the completion of radiation improved growth delay, this RTK inhibitor was administered twice daily continuously in groups treated with radiation alone or SU11248 and radiation. Beginning after day 8, three groups (drug alone, radiation+vehicle, and combined therapy) were maintained with twice daily intraperitoneal administrations of 20 mg/kg SU11248 for an additional 7 days. Maintenance treatment was discontinued after day 17, and subsequently resumed after four days of drug holiday.

The subject of assay [11] is tumors. Description: Power Doppler tumor blood flow, SU11248 and radiation. It is filed as in vivo. To be noted: p<0.053. The text has this: To determine whether prolonged growth delay correlated with reduction in tumor blood flow, amplitude modulated Power Doppler was used to monitor blood flow. Reduced blood flow in tumors treated with SU11248 and radiation correlated with improved tumor growth delay.

Take `CCN(CC)CCNC(=O)c1c(C)[nH]c(/C=C2\C(=O)Nc3ccc(F)cc32)c1C` [SU11248]: the “vascular length density, % of that at 0 hour” value in assay [1] (SU11248 alone) worked out at 84%. Also, in assay [1] (SU11248 followed by 3 Gy, within 72 hours, p<0.01), the “vascular length density, % of that at 0 hours” value turned out to be 8%. For the same molecule, the “tumor growth delay compared to either agent alone” value in assay [2] was “significant increase”; in assay [5] (LLC, SU11248 prior to daily 3 Gy fractions, p<0.05) it was “significant increase”. Also, the “clonogenic survival compared to radiation alone” value in assay [3] was “significant reduction”. Also, the “radiation-induced phosphorylation of Erk” value in assay [4] is on record as “attenuated”. Besides, the “time to doubling of LLC tumor size” value in [5] (40 mg/kg i.p. 30 minutes prior to each 3 Gy dose, 21 Gy total, vehicle+21 Gy 8 days) is 16 days; in assay [5] (40 mg/kg i.p., seven administrations, no radiation, vehicle 5 days), 6 days. The “radiation-induced activation of Akt” value in assay [6] (irradiated vascular endothelium, summary statement) is reported as “attenuate”. Besides, the “radiation-induced phosphorylation of Akt” value in assay [6] (primary culture endothelial cells (Example 16)) is listed as “attenuated”. Moreover, the “radiation-induced PDGFR phosphorylation” value in [7] was “markedly attenuated”. Besides, the “endothelial cells with apoptotic nuclei” value in [8] (100 nM SU11248 30 minutes prior to 6 Gy) is 21%; in assay [8] (100 nM SU11248 alone, untreated 2%) it was 7%. For the same molecule, the “apoptotic cells in tumor sections” value in [9] (SU11248 alone) is recorded as “could not be detected”; in assay [9] (radiation and SU11248, 24 hours following treatment, no apoptotic tumor cells), “TUNEL positive endothelial cells”. Further, the “growth to 4-fold that of day 0 tumors” value in assay [10] (maintenance 20 mg/kg i.p. twice daily for 7 days after day 8, p<0.05 in all groups) is listed as “significantly delays”. The “tumor growth after re-initiation of SU11248” value in assay [10] (re-initiation at day 21 after four days of drug holiday) is on record as “second phase of tumor growth delay”. Moreover, the “tumor blood flow compared to radiation alone” value in assay [11] is listed as “approached significant reduction”.
